From US11324720B2, “Antiproliferative DNA polymerase inhibitor” (NEW YORK MEDICAL COLLEGE, priority 2018, dated 2022)

How the values were obtained:
HCC1395 cells [1] = assay: DNA fiber fluorography dual labeling (IdU/CldU); assay type: cell-based, human; details: all three concentrations, zelpolib added with CldU for 60 min
Excerpt: (§1) In our search for Pol δ inhibitors, we focused on the identification of inhibitors that can inhibit Pol δ when it is actively replicating DNA. DNA fiber fluorography with dual labeling technique^24 provides a possibility that we can analyze the effect of zelpolib on ongoing DNA replication at a single molecule level. Both IdU and CldU are halogenated thymidine analogs that can be incorporated into DNA. Subsequent DNA fiber spreading and antibody detection are used to directly visualize the replicated DNA fiber. The incorporation of IdU gives rise to red fibers and CldU produces green fibers with subsequent antibody detection^24. Therefore, in this assay, the cells were first incubated with IdU for 20 minutes in the absence of zelpolib (FIG. 3B) to establish ongoing DNA replication and the basal replication rates of each individual DNA fibers. Subsequently, CldU were added to cell culture either with or without simultaneous addition of zelpolib. DNA replication were allowed for an additional hour. […] In order to be certain that this inhibition was not cell line dependent, we conducted an identical experiment on a triple-negative breast cancer cell line as well. […] The DNA fibers (FIG. 3C) from a single field of view (FIG. 9) were realigned for visual comparison.
(§2) To analyze the effect of zelpolib, DNA fiber fluorography was used with dual labeling technique as reported. Cells were seeded in 6-well plates (Cellstar) and allowed to attach for 24 hours before pulse labeled with 25 μM IdU for 20 min. Subsequently, cells were washed three times with PBS and pulse labeled with 250 μM of CldU (Sigma) for 60 min in the presence or absence of zelpolib. Cell lysis and fiber spreading were conducted according to Schwab & Niedzwiedz. IdU and CldU were detected by primary mouse anti-BrdU antibody (BD biosciences, 1:25) and rat anti-BrdU antibody (Abcam, 1:200) and secondary fluorescent antibodies Alexa anti-mouse 594 (ThermoFisher scientific, 1:625) and Alexa anti-rat 488 (ThermoFisher scientific, 1:200). DNA fibers were imaged on fluorescence microscope and fiber lengths were measured using Image-J software. Statistics were calculated using GraphPad prism software.

BxPC-3 cells [2] = assay: DNA fiber fluorography dual labeling (IdU/CldU); assay type: cell-based, human
Excerpt: as §1, §2

HCC1395 cells [3] = assay: MTT assay with PARP inhibitors with or without zelpolib; assay type: cell-based, human; details: 2.5 μM zelpolib, 48 hrs
Experimental: However, there have been minimal clinical benefits for HR-proficient cancers^37-41. Since zelpolib can inhibit HR, we explored the effect of zelpolib in combination with PARP inhibitors on HR-proficient cancer cells. The hypothesis is that zelpolib will lead to an HR-defect through inhibition of Pol δ and render HR-proficient cells sensitive to PARP inhibition. […] The cells were treated with increasing concentrations of PARP inhibitor Niraparib (FIG. 5B) or Rucaparib (FIG. 5C) in the absence or presence of 2.5 μM zelpolib for 48 hrs. The number of cells were then analyzed by MTT assay.
Human cancer cells (5×10^3-7.5×10^3) were initially seeded in 96-well plates (Cellstar) containing 0.2 ml media per well. After 24 hrs, these cells were treated with variable concentrations drug combinations for 48-72 hrs. Subsequently, 4,5-dimethylthiazol-2-yl-2,5-diphenyltetrazolium bromide (MTT) (20 μl of 5 mg/ml) was added to each well for 3 hrs. Formazan crystals were then dissolved in 150 μl DMSO and optical density was read at 490 nm^25. All experiments were performed in triplicates. Results were analyzed by GraphPad Prism. Data represent mean value±SEM for each concentration of inhibitor combinations.

Pol δ = target: T1, Pol δ (Homo sapiens, UniProt P28340); assay: primer extension assay (25 mer primer/40 mer template); assay type: biochemical; details: 20 μM inhibitor
T1 construct: made in house; host or cells: insect cells (Pol δ); E. coli (PCNA)
T1 sequence (P28340 whole entry): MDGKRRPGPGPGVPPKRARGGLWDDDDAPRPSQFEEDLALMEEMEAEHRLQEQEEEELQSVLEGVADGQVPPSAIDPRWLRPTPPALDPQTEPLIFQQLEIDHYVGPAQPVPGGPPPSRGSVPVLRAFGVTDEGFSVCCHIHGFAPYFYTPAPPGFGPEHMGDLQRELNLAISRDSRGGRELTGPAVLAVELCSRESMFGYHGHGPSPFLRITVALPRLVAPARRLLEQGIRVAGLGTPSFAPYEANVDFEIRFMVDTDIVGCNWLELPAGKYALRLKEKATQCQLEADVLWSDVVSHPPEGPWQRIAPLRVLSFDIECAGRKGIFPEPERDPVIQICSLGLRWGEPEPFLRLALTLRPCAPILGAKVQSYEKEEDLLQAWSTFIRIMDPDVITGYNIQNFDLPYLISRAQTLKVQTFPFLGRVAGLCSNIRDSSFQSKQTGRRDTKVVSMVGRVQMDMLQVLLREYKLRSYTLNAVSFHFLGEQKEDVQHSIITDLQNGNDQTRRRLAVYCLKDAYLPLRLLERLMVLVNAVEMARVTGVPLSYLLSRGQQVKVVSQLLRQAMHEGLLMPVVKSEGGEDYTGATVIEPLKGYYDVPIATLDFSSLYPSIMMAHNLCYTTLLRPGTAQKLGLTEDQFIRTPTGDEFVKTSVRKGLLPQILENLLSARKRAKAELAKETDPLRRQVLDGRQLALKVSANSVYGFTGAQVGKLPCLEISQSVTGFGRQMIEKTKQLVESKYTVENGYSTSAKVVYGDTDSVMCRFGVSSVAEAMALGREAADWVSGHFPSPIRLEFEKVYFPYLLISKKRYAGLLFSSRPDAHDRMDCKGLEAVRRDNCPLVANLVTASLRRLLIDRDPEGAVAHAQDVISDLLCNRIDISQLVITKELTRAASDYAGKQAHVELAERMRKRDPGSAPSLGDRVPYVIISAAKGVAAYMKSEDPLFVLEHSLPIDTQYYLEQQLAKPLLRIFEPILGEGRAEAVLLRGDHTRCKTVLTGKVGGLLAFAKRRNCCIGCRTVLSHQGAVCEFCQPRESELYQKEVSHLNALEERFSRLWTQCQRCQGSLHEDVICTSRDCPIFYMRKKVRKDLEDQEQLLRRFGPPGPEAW
T1 sequence (P49005 whole entry partner): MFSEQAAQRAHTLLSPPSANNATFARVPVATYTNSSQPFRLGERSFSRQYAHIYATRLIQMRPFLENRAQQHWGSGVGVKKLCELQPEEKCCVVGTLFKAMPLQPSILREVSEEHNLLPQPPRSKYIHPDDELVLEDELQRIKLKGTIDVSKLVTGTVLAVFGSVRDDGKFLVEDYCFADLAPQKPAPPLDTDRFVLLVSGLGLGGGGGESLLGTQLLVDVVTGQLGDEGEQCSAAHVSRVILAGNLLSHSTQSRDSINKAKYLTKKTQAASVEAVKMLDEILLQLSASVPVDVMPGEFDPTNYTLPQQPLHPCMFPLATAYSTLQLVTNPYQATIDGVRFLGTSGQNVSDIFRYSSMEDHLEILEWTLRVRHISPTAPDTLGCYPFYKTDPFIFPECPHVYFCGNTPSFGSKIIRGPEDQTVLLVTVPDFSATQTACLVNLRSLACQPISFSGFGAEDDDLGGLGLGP
T1 sequence (Q15054 whole entry partner): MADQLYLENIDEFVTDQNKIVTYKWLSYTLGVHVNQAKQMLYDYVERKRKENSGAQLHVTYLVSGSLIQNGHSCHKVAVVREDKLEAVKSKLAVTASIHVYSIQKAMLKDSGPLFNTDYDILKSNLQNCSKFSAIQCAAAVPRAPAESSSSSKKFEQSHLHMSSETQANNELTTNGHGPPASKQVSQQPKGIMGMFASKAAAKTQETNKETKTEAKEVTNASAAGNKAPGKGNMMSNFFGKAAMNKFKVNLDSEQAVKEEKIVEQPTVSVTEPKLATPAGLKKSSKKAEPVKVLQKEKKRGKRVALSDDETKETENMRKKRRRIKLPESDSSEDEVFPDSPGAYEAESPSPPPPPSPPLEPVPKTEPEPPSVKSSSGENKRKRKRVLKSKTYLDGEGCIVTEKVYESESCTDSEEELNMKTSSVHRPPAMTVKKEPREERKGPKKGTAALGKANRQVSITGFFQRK
T1 sequence (P12004 whole entry partner): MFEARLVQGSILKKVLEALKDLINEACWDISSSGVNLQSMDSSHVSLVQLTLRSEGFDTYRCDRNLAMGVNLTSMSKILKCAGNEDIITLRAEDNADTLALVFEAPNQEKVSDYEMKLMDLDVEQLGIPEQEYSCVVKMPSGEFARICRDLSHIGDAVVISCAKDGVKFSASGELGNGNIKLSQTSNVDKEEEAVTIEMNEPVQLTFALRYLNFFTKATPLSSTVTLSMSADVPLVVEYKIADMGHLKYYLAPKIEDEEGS
Excerpt: Next, we investigated the inhibitory properties of zelpolib in a primer extension assay^17,18 with a template that consists of all four deoxynucleotide that is more reflective of cellular DNA replication processes than the pold(A) template. The substrate consisted of a 25 mer primer hybridized to a 40 mer template. In the presence of PCNA and dNTPs, the primers were extended upon addition of Pol δ and a full extension would generate a 40 mer copy of the template. The primers were labeled at the 5′-end with ^32P, and the products were separated on a sequencing gel for visualization and quantification. […] The idea originated from the fact that most kinase inhibitors compete for binding with ATP. It is conceivable that they might compete with dATP for binding to polymerases. We randomly selected 10 small-molecule-cancer drugs with nine being kinase inhibitors^19 and one parp inhibitor (olaparib)^20. […] In the presence of any other inhibitors, at least 30% of the primers were extended.
Recombinant Pol […] were expressed in insect cells and purified as reported previously^18. […]
Briefly, the standard reaction mixture contained 5 μM dNTP, 5 mM MgCl2, 50 mM Tris-HCl (pH 7.5), 2 mM dithiothreitol, […] BSA, 50 mM NaCl, 20 nM primer/template, 50 nM PCNA, 10 nM Pol δ and variable concentrations of inhibitors. […] Products was visualized on phosphorimager and quantitated using Image-J software. […]

BxPC-3 cells [4] = assay: EdU incorporation by laser scanning cytometry; assay type: cell-based, human; details: 10 and 20 μM; 1 to 2 hours pre-incubation, then EdU pulse

COC(=O)c1cc(-c2ccccc2)sc1NC(=S)NNC(=O)CCc1ccc(O)c(O)c1 [zelpolib]
inhibition of ongoing DNA replication (green/red fiber length ratio) (HCC1395 cells [1]): significant inhibition of ongoing DNA replication | inhibition of DNA fiber extension (BxPC-3 cells [2]; 20 μM, 60 minutes exposure, cell line not stated): about 40% | inhibition of ongoing cellular DNA replication (green/red fiber length ratio) (BxPC-3 cells [2]; BxPC-3, zelpolib added with CldU for 60 min): concentration dependent inhibition of ongoing cellular DNA replication | cellular uptake time (BxPC-3 cells [2]; inferred from fiber inhibition at 20 μM with 60 minutes total exposure): less than 30 minutes | sensitisation of HCC1395 cells to Rucaparib (HCC1395 cells [3]; difference statistically significant up to 25 μM): behaved similarly to zelpolib and Niraparib combination | sensitisation of HCC1395 cells to Niraparib (HCC1395 cells [3]; differences significant up to 20 μM): increased the sensitivity of HCC1395 cells to Niraparib across the whole range of concentrations | full-length product (40 mer) formed (Pol δ): barely detectible | primer unextended (Pol δ): 94% | EdU incorporation versus sham treatment (BxPC-3 cells [4]): significant reduction of EdU incorporation
